Measured values published in ChEMBL document CHEMBL1201862, “PubChem BioAssay data set” (2004).
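96-well plates; 48 h exposure; 5 concentrations. Endpoints by linear interpolation between flanking doses. Not reached: highest tested concentration assigned. GI50: concentration for 50% inhibition of growth.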 The source made the active and inactive calls. Cut-off read from the data, not from the text of the source: active = GI50 up to about 1.1 µM and inactive = higher.

Experiments:
Experiment in all cases: NCI anticancer screen, dose series, 48 h
MOLT-4 = tested on: MOLT-4
SN12C = tested on: SN12C
OVCAR-5 = tested on: OVCAR-5
HL-60 = tested on: HL-60
UACC-62 = tested on: UACC-62
RPMI-8226 = tested on: RPMI-8226
OVCAR-3 = tested on: OVCAR-3
LOX IMVI = tested on: LOX IMVI
SF-539 = tested on: SF-539
ACHN = tested on: ACHN
HOP-62 = tested on: HOP-62
A549 = tested on: A549
EKVX = tested on: EKVX
SNB-19 = tested on: SNB-19
OVCAR-8 = tested on: OVCAR-8
SK-OV-3 = tested on: SK-OV-3

SMILES	GI50 (MOLT-4)	GI50 (SN12C)	GI50 (OVCAR-5)	GI50 (HL-60)	GI50 (UACC-62)	GI50 (RPMI-8226)	GI50 (OVCAR-3)	GI50 (LOX IMVI)	GI50 (SF-539)	GI50 (ACHN)	GI50 (HOP-62)	GI50 (A549)	GI50 (EKVX)	GI50 (SNB-19)	GI50 (OVCAR-8)	GI50 (SK-OV-3)
N#Cc1cccc(N2C(=O)c3c(c(-c4ccccc4)c(-c4ccc(Sc5ccc(-c6c(-c7ccccc7)c7c(c(-c8ccccc8)c6-c6ccccc6)C(=O)N(c6cccc(C#N)c6)C7=O)cc5)cc4)c(-c4ccccc4)c3-c3ccccc3)C2=O)c1	49.2 µM (inactive)	23.9 µM (inactive)	> 100 µM (inactive)	> 100 µM (inactive)	61.7 µM (inactive)	> 100 µM (inactive)	> 100 µM (inactive)	78.2 µM (inactive)	65.2 µM (inactive)	> 100 µM (inactive)	89.3 µM (inactive)	> 100 µM (inactive)	35.8 µM (inactive)	29.3 µM (inactive)	45.9 µM (inactive)	
C[S+]([O-])c1ccc(COP(N)(=O)N(CCCl)CCCl)cc1 (stereo unspecified)	> 100 µM (inactive)	> 100 µM (inactive)	> 100 µM (inactive)	> 100 µM (inactive)	> 100 µM (inactive)	> 100 µM (inactive)	> 100 µM (inactive)	> 100 µM (inactive)	> 100 µM (inactive)	> 100 µM (inactive)	> 100 µM (inactive)	> 100 µM (inactive)	> 100 µM (inactive)	> 100 µM (inactive)	> 100 µM (inactive)	> 100 µM (inactive)
COC1C2C[C@@H](O)CCC2C(C(=O)OCCl)C[C@H]1O (stereo partly specified)	> 100 µM (inactive)	> 100 µM (inactive)		> 100 µM (inactive)	> 100 µM (inactive)	> 100 µM (inactive)	> 100 µM (inactive)		> 100 µM (inactive)	> 100 µM (inactive)	> 100 µM (inactive)	> 100 µM (inactive)		> 100 µM (inactive)	> 100 µM (inactive)	> 100 µM (inactive)
CS/C(C)=N/OC(=O)NCCCCNc1ccc(N=[N+]=[N-])cc1	28.4 µM (inactive)	59.2 µM (inactive)	> 100 µM (inactive)		21.8 µM (inactive)	18.4 µM (inactive)	27.7 µM (inactive)	26.7 µM (inactive)	50.5 µM (inactive)	26.2 µM (inactive)	48.2 µM (inactive)	30.4 µM (inactive)	45.4 µM (inactive)	66.4 µM (inactive)	47.9 µM (inactive)	37.9 µM (inactive)
CC1(C)CC(=O)C(C(=O)C(=O)NC2=C(Cl)C(=O)c3ccccc3C2=O)C(=O)C1	20.1 µM (inactive)	73.6 µM (inactive)	> 100 µM (inactive)	20.1 µM (inactive)	45.5 µM (inactive)	34.8 µM (inactive)	58.6 µM (inactive)	80.9 µM (inactive)	> 100 µM (inactive)	91.4 µM (inactive)	> 100 µM (inactive)	> 100 µM (inactive)	> 100 µM (inactive)	> 100 µM (inactive)	> 100 µM (inactive)	> 100 µM (inactive)
COCC12CC(CC1=O)C1C2ON2c3ccccc3C(=O)C12c1ccccc1 (stereo unspecified)	52.5 µM (inactive)	> 100 µM (inactive)		76.4 µM (inactive)	77.4 µM (inactive)	40.7 µM (inactive)			> 100 µM (inactive)	> 100 µM (inactive)	> 100 µM (inactive)	> 100 µM (inactive)	> 100 µM (inactive)	> 100 µM (inactive)	> 100 µM (inactive)	> 100 µM (inactive)
CN1CCC(CN2c3ccccc3Sc3ccccc32)CC1	15.5 µM (inactive)	19.1 µM (inactive)	19.4 µM (inactive)	13 µM (inactive)	14.8 µM (inactive)	12.7 µM (inactive)	15.3 µM (inactive)	13.5 µM (inactive)	14.9 µM (inactive)	16 µM (inactive)	18 µM (inactive)	15.1 µM (inactive)	14.4 µM (inactive)	15.7 µM (inactive)	17.5 µM (inactive)	16.5 µM (inactive)
COc1cccc2c1C(=O)C1(O)CCCCC21 (stereo unspecified)	> 100 µM (inactive)	> 100 µM (inactive)	> 100 µM (inactive)	> 100 µM (inactive)	> 100 µM (inactive)	> 100 µM (inactive)	> 100 µM (inactive)	> 100 µM (inactive)	> 100 µM (inactive)	> 100 µM (inactive)	> 100 µM (inactive)	> 100 µM (inactive)		> 100 µM (inactive)	> 100 µM (inactive)	> 100 µM (inactive)
CCSc1c2ccccc2c(-c2nc(F)nc(F)n2)n1CCc1ccccc1	56.4 µM (inactive)	> 100 µM (inactive)	> 100 µM (inactive)	> 100 µM (inactive)		> 100 µM (inactive)	> 100 µM (inactive)	> 100 µM (inactive)	> 100 µM (inactive)	> 100 µM (inactive)	> 100 µM (inactive)	> 100 µM (inactive)	> 100 µM (inactive)	> 100 µM (inactive)		
Cc1c(Cl)cccc1NC(=O)C(=O)C1C(=O)NC(=O)NC1=O	> 100 µM (inactive)	> 100 µM (inactive)	> 100 µM (inactive)	> 100 µM (inactive)	> 100 µM (inactive)	> 100 µM (inactive)	> 100 µM (inactive)	> 100 µM (inactive)	> 100 µM (inactive)	> 100 µM (inactive)	> 100 µM (inactive)	> 100 µM (inactive)	> 100 µM (inactive)	> 100 µM (inactive)	> 100 µM (inactive)	> 100 µM (inactive)
COCCNC(=O)C1C(=O)N(CCOC)C(=O)/C1=N/N (stereo unspecified)	> 100 µM (inactive)	> 100 µM (inactive)		> 100 µM (inactive)	> 100 µM (inactive)	> 100 µM (inactive)	> 100 µM (inactive)	> 100 µM (inactive)	> 100 µM (inactive)	> 100 µM (inactive)		> 100 µM (inactive)	> 100 µM (inactive)	> 100 µM (inactive)		> 100 µM (inactive)
BrC12c3ccccc3Sc3ccccc3C1(Br)c1ccccc12 (stereo unspecified)	10.7 µM (inactive)	25.8 µM (inactive)	25.5 µM (inactive)	5.21 µM (inactive)	16.7 µM (inactive)	13.5 µM (inactive)		15.8 µM (inactive)	18.3 µM (inactive)	24.2 µM (inactive)	19.5 µM (inactive)	27.7 µM (inactive)		32.7 µM (inactive)	32.1 µM (inactive)	42.1 µM (inactive)
CSc1ccc(NC(=O)C2c3[nH]c4ccccc4c3C3CCC(C(C)(C)C)CC3C2C(=O)O)cc1 (stereo unspecified)	15.1 µM (inactive)	18.6 µM (inactive)		9.42 µM (inactive)	17.4 µM (inactive)	20.3 µM (inactive)			19.7 µM (inactive)	15.3 µM (inactive)	16.9 µM (inactive)	15.2 µM (inactive)	24.3 µM (inactive)	30.5 µM (inactive)	14.8 µM (inactive)	16.5 µM (inactive)
CCOc1ccc(NC(=O)C(=O)NO)cc1	> 100 µM (inactive)	> 100 µM (inactive)	> 100 µM (inactive)	> 100 µM (inactive)	> 100 µM (inactive)	> 100 µM (inactive)	> 100 µM (inactive)	> 100 µM (inactive)	> 100 µM (inactive)	> 100 µM (inactive)	> 100 µM (inactive)	> 100 µM (inactive)	> 100 µM (inactive)	> 100 µM (inactive)	> 100 µM (inactive)	> 100 µM (inactive)
O=c1[nH]c(=O)n(C2OC(COP(=O)(O)OP(=O)(O)O)C(O)C2O)cc1F (stereo unspecified)	0.877 µM (active)	0.916 µM (active)	7 µM (inactive)	7.43 µM (inactive)	2.7 µM (inactive)	0.436 µM (active)	6.34 µM (inactive)	0.251 µM (active)	0.594 µM (active)	0.178 µM (active)	2.24 µM (inactive)	0.119 µM (active)	2.44 µM (inactive)	0.743 µM (active)	2.11 µM (inactive)	3.92 µM (inactive)
O=C1C[C@@H]2CCCC[C@@H]2C12SCCS2	69.8 µM (inactive)	> 100 µM (inactive)	> 100 µM (inactive)	80 µM (inactive)	77.3 µM (inactive)	> 100 µM (inactive)	> 100 µM (inactive)	> 100 µM (inactive)	> 100 µM (inactive)	> 100 µM (inactive)	> 100 µM (inactive)	> 100 µM (inactive)	> 100 µM (inactive)	> 100 µM (inactive)	> 100 µM (inactive)	> 100 µM (inactive)
CC(=O)OC1CCCn2c1nc1c2C(=O)C(C)=C(N2CC2)C1=O (stereo unspecified)	19.4 µM (inactive)	0.308 µM (active)	0.356 µM (active)	2.41 µM (inactive)	0.301 µM (active)	1.07 µM (active)	0.329 µM (active)	0.303 µM (active)	0.519 µM (active)	0.254 µM (active)	0.216 µM (active)	0.316 µM (active)	0.721 µM (active)	0.338 µM (active)	0.388 µM (active)	0.364 µM (active)
CC(C)=CCC/C(=C/CC/C(C)=C/CCc1ccoc1)C(=O)O	> 100 µM (inactive)	> 100 µM (inactive)	26.5 µM (inactive)		> 100 µM (inactive)		> 100 µM (inactive)	> 100 µM (inactive)	> 100 µM (inactive)	> 100 µM (inactive)	> 100 µM (inactive)	> 100 µM (inactive)	> 100 µM (inactive)	> 100 µM (inactive)	> 100 µM (inactive)	> 100 µM (inactive)
